For orientation: IC50 means the concentration that gives 50% inhibition. The Kd is the free concentration of one partner at which half of the binding sites on the other are occupied at equilibrium, for simple one-to-one binding. Read a high Kd as a looser complex.

The subject of one assay is LEF-TCF-bla HCT116 cells. Description: Wnt reporter assay: Wnt/Beta-Catenin-LEF-TCF-bla HCT116 inhibitor screen, constitutively activated. In kind it is cell-based. The note with it: 5 hours incubation with compound. The text has this:
In various embodiments, a polypeptide described herein inhibits binding of BCL9 to β-catenin when assessed in a Wnt transcription assay. In some embodiments, the Wnt transcription assay is a cell-based assay. In some embodiments, the cell-based Wnt transcription assay is a GeneBLAzer® beta-lactamase (bla) reporter assay. Various cell lines, transformed cell lines or primary cells derived from a healthy subject or subject suffering from a disease can be used in this assay. A cell line known to be dependent on canonical Wnt/β-catenin signaling for its survival may also be used. In some embodiments, CellSensor™ LEF/TCF-bla HCT-116 cells are used in this reporter assay. These cells contain a beta-lactamase (BLA) reporter gene under the control of a 0-catenin/LEF/TCF response element stably integrated into HCT-116 cells. As the cells constitutively express beta-lactamase, adding a polypeptide that inhibits binding of BCL9 to β-catenin in this assay leads to reduced production of beta-lactamase. The efficiency of the polypeptide in suppressing Wnt transcription can therefore be quantitatively calculated in this assay. In some embodiments, a polypeptide described herein suppresses the Wnt transcription as measured in a GeneBLAzer® beta-lactamase (bla) reporter assay, which is indicative of the ability of the polypeptide to inhibit binding of BCL9 to β-catenin.
Wnt/Beta-Catenin-LEF-TCF-bla HCT116-Inhibitor Screen, Constitutively Activated. LEF-TCF-bla HCT116 cells are thawed and prepared as described above for the Activator Screen. 32 μL of cell suspension is added to each well of a 384-well Poly-D-Lysine assay plate. Cells in Assay Media are incubated for 16-24 hours in the plate at 37° C./5% CO2 in a humidified incubator. 4 μL of a 10× serial dilution of ICG-001 (control inhibitor starting concentration, 25,000 nM) or compounds are added to appropriate wells of the plate. 4 μL of Assay Media is added to all wells to bring the final assay volume to 40 μL. The plate is incubated for 5 hours at 37° C./5% CO2 in a humidified incubator. 8 μL of 1 μM Substrate Loading Solution is added to each well and the plate is incubated for 2 hours at room temperature. The plate is read on a fluorescence plate reader.

Assay [1] addresses T1, β-catenin (Homo sapiens, UniProt P35222). The experiment in a line: kd(1/s). An excerpt: (§1) Table printed on a drawing sheet, FIG. 1
Head of the field: kd(1/s)
(§2) First copying reader's note: Kinetic binding constants printed under a sensorgram plot (Biacore assay of β-catenin binding according to the description).

The target of assay [2] is T1, β-catenin. The experiment in a line: KD(nM).
Text: as §1
Head of the field: KD(nM)
as §2

Assay [3] concerns the target T1, β-catenin. Description: ka(1/Ms).
Text: as §1
Head of the field: ka(1/Ms)
as §2

The test system of another assay is Colo320DM. Description: Colo320DM cell viability. It is filed as cell-based, human. The text has this: In some embodiments, a polypeptide described herein inhibits binding of BLC9 to β-catenin when assessed in a cell-viability assay. In some embodiments, the cell-viability assay is a CellTiterGlo luminescent assay, wherein the viability of cells is quantitatively measured. Various cell lines, transformed cell lines or primary cells derived from a healthy subject or subject suffering from a disease can be used in this assay.

Where a SMILES comes first, the peptide text is derived from it. Bridges are numbered along the chain shown (N, C = ends). [ ]: non-standard residue; d: D form. 2Nal = N[C@@H](Cc1ccc2ccccc2c1)C(=O)O; NMeQ = CN[C@@H](CCC(N)=O)C(=O)O; Cha = N[C@@H](CC1CCCCC1)C(=O)O; S5 = C=CCCC[C@](C)(N)C(=O)O

T1 sequence (P35222 2-781 limits assumed): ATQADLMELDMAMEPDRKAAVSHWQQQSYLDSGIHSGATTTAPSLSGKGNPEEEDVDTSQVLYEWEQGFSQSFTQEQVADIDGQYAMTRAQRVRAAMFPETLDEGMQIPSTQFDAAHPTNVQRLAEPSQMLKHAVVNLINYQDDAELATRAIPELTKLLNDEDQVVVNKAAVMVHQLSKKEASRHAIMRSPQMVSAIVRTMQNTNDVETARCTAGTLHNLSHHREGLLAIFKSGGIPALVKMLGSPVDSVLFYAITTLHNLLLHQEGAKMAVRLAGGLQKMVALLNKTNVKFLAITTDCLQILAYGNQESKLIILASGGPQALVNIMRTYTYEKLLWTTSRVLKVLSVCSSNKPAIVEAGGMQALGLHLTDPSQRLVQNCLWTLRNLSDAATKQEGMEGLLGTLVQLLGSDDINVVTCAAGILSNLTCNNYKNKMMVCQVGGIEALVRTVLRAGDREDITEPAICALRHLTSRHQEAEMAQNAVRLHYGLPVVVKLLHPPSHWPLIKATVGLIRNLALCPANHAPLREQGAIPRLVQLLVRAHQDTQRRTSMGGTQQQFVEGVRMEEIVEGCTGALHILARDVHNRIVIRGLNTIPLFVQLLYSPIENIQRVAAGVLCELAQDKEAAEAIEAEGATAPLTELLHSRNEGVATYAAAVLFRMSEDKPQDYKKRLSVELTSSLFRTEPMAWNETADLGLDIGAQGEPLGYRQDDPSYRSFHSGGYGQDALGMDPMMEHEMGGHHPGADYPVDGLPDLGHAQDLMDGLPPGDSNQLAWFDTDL

As for `CC[C@H](C)[C@@H]1NC(=O)[C@@](C)(NC(=O)[C@H](CCCNC(=N)N)NC(=O)[C@H](CC(C)C)NC(=O)[C@@H](NC(=O)[C@H](CCC(N)=O)NC(=O)[C@H](CC(C)C)NC(=O)[C@H](CO)NC(=O)[C@H](CCCNC(=N)N)NC(=O)[C@H](CCC(N)=O)NC(=O)[C@H](CCCNC(=N)N)NC(=O)[C@H](Cc2c[nH]cn2)NC(C)=O)[C@@H](C)O)CCCC=CCCC[C@@](C)(C(=O)N[C@@H](CC2CCC2)C(=O)N[C@@H](Cc2ccc3ccccc3c2)C(N)=O)NC(=O)[C@H](CCCNC(=N)N)NC(=O)[C@H](CCC(N)=O)NC1=O` [SEQ ID NO: 147, HRQRSLQTLRXIQRX(CBA)(2-Nal)], the half-inhibitory concentration (IC50) in the assay on LEF-TCF-bla HCT116 cells is 1.54 µM; in the assay with Colo320DM, 2.53 µM. The “kd” value on β-catenin [1] stood at 0.009538 s⁻¹. The molecule also registered a Kd on β-catenin [2] of 0.0285 µM. Moreover, the “ka(1/Ms)” value on β-catenin [3] stood at 3.348E + 5 1/Ms.
With `CC[C@H](C)[C@@H]1NC(=O)[C@@](C)(NC(=O)[C@H](CCCNC(=N)N)NC(=O)[C@H](CC(C)C)NC(=O)[C@@H](NC(=O)[C@H](CCC(N)=O)N(C)C(=O)[C@H](CC(C)C)NC(=O)[C@H](CO)NC(=O)[C@H](CCCNC(=N)N)NC(=O)[C@H](CCC(N)=O)N(C)C(=O)[C@H](CCCNC(=N)N)NC(=O)[C@H](Cc2c[nH]cn2)NC(C)=O)[C@@H](C)O)CCCC=CCCC[C@@](C)(C(=O)N[C@@H](CC2CCCCC2)C(=O)N[C@@H](Cc2ccc3ccccc3c2)C(N)=O)NC(=O)[C@H](CCCNC(=N)N)NC(=O)[C@H](CCC(N)=O)NC1=O` [SEQ ID NO: 181, HR(N-methylQ)RSL(N-methylQ)TLRXIQRX(Cha)(2-Nal)] (Ac-HR[NMeQ]RSL[NMeQ]TLR[S5]IQR[S5][Cha][2Nal]-NH2; staple 11-15), the IC50 in the assay on LEF-TCF-bla HCT116 cells came to 4.46 µM; in the assay on Colo320DM it was 1.82 µM.
